Test results taken from ChEMBL document CHEMBL1132878, “Phosphonamidate and phosphothioate dipeptides as potential inhibitors of VanX” (Bioorg Med Chem Lett, 2000).
Calls of active or inactive are those of the source. The calls are words filed in the database; no cut-off is given here.

Columns and labels:
[1] = tested on: Stenotrophomonas maltophilia; test: Tested for inhibitory activity against metallo-beta-lactamase L1 from Stenotrophomonas maltophilia at compound concentration up to […] at pH 7.0 using nitrocefin as substrate; No inhibition; type: functional
[2] = Compound was evaluated for inhibition of Van X at pH 7.0
[3] = Compound was evaluated for inhibition of Van X at pH 7.0; No inhibition
[4] = Compound was evaluated for inhibition of Van X

SMILES | Activity [1] | Ki [2] [µM] | Ki [3] | Kis [4] [µM]
CC(NP(=O)(O)C(C)N)C(=O)O (configuration not stated) | inactive | 36 | – | –
CC(N)P(=O)(O)SCC(=O)O (configuration not stated) | inactive | – | Not Active | –
CC(C[PH](=O)C(C)N)C(=O)O (configuration not stated) | – | – | – | 0.32
CC(OP(=O)(O)C(C)N)C(=O)O (configuration not stated) | inactive | 400 | – | –
